From ChEMBL document CHEMBL1201862, “PubChem BioAssay data set” (2004)
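Exposure lasted 48 hours, with cells grown in 96-well plates and compounds tested at five concentrations. Abbreviation: GI50, concentration required for 50% inhibition of growth.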 Active and inactive are the calls of the source. Rule as the data show it: active = GI50 up to about 1.1 µM and inactive = higher.

Experiments:
Test in all cases: NCI tumour cell line growth inhibition, 48 h
OVCAR-5 = tested on: OVCAR-5
LOX IMVI = tested on: LOX IMVI
HCC 2998 = tested on: HCC 2998
SR = tested on: SR
A498 = tested on: A498
MDA-N = tested on: MDA-N
NCI/ADR-RES = tested on: NCI/ADR-RES
EKVX = tested on: EKVX
RPMI-8226 = tested on: RPMI-8226
NCI-H522 = tested on: NCI-H522
UO-31 = tested on: UO-31
ACHN = tested on: ACHN
PC-3 = tested on: PC-3
COLO 205 = tested on: COLO 205
MCF7 = tested on: MCF7
CAKI-1 = tested on: CAKI-1
SK-MEL-2 = tested on: SK-MEL-2
SF-539 = tested on: SF-539
MDA-MB-435 = tested on: MDA-MB-435

Structure (SMILES)	GI50 (OVCAR-5)	GI50 (LOX IMVI)	GI50 (HCC 2998)	GI50 (SR)	GI50 (A498)	GI50 (MDA-N)	GI50 (NCI/ADR-RES)	GI50 (EKVX)	GI50 (RPMI-8226)	GI50 (NCI-H522)	GI50 (UO-31)	GI50 (ACHN)	GI50 (PC-3)	GI50 (COLO 205)	GI50 (MCF7)	GI50 (CAKI-1)	GI50 (SK-MEL-2)	GI50 (SF-539)	GI50 (MDA-MB-435)
CC(=O)Oc1cc2c[n+](C)c3c4cc(OC(C)=O)c(OC(C)=O)cc4ccc3c2cc1OC(C)=O	17.3 µM (inactive)	2.82 µM (inactive)	9.23 µM (inactive)	2.22 µM (inactive)	7.5 µM (inactive)	5.51 µM (inactive)	2.54 µM (inactive)	3.56 µM (inactive)	> 20 µM (inactive)	0.647 µM (active)	1.36 µM (inactive)	4.68 µM (inactive)	4.07 µM (inactive)	6.5 µM (inactive)	3.17 µM (inactive)	4.48 µM (inactive)	–	–	–
CCOC(=O)C1CCCc2sc(N)c(C#N)c21 (stereo unspecified)	> 100 µM (inactive)	–	> 100 µM (inactive)	> 100 µM (inactive)	> 100 µM (inactive)	> 100 µM (inactive)	–	57.3 µM (inactive)	> 100 µM (inactive)	–	> 100 µM (inactive)	> 100 µM (inactive)	> 100 µM (inactive)	> 100 µM (inactive)	> 100 µM (inactive)	–	> 100 µM (inactive)	–	–
CCN(CCN(CC)C(=O)Nc1ccccc1)C(=O)Nc1ccccc1	> 100 µM (inactive)	> 100 µM (inactive)	> 100 µM (inactive)	> 100 µM (inactive)	> 100 µM (inactive)	–	> 100 µM (inactive)	> 100 µM (inactive)	> 100 µM (inactive)	> 100 µM (inactive)	> 100 µM (inactive)	> 100 µM (inactive)	> 100 µM (inactive)	> 100 µM (inactive)	> 100 µM (inactive)	–	> 100 µM (inactive)	–	–
C/N=C1\OC2=C3C(c4ccccc4)(O/C(=N/C)N(C)C3(c3ccccc3)OC2=O)N1C (stereo unspecified)	> 100 µM (inactive)	–	> 100 µM (inactive)	> 100 µM (inactive)	> 100 µM (inactive)	> 100 µM (inactive)	> 100 µM (inactive)	> 100 µM (inactive)	–	> 100 µM (inactive)	> 10 µM (inactive)	> 100 µM (inactive)	> 100 µM (inactive)	> 100 µM (inactive)	> 100 µM (inactive)	> 100 µM (inactive)	23.7 µM (inactive)	> 100 µM (inactive)	–
Cc1cc(SCC(=O)c2ccccc2)nc2ccccc12	72.9 µM (inactive)	> 100 µM (inactive)	–	> 100 µM (inactive)	> 100 µM (inactive)	–	> 100 µM (inactive)	8.11 µM (inactive)	> 100 µM (inactive)	53.7 µM (inactive)	73.5 µM (inactive)	> 100 µM (inactive)	> 100 µM (inactive)	> 100 µM (inactive)	> 100 µM (inactive)	> 100 µM (inactive)	> 100 µM (inactive)	> 100 µM (inactive)	> 100 µM (inactive)
CCOP(C)(=O)C(Nc1ccc(F)cc1)c1ccc(F)cc1 (stereo unspecified)	> 100 µM (inactive)	> 100 µM (inactive)	> 100 µM (inactive)	> 100 µM (inactive)	> 100 µM (inactive)	> 100 µM (inactive)	> 100 µM (inactive)	> 100 µM (inactive)	> 100 µM (inactive)	> 100 µM (inactive)	71.3 µM (inactive)	> 100 µM (inactive)	> 100 µM (inactive)	> 100 µM (inactive)	–	> 100 µM (inactive)	> 100 µM (inactive)	> 100 µM (inactive)	> 100 µM (inactive)
COC1O[C@H]2[C@H]3[C@@H]1[C@@H](OS(=O)(=O)c1ccc(C)cc1)C(=O)N3C[C@H]2O (stereo partly specified)	> 100 µM (inactive)	> 100 µM (inactive)	> 100 µM (inactive)	> 100 µM (inactive)	> 100 µM (inactive)	–	> 100 µM (inactive)	> 100 µM (inactive)	61.2 µM (inactive)	–	> 100 µM (inactive)	> 100 µM (inactive)	81.8 µM (inactive)	> 100 µM (inactive)	> 100 µM (inactive)	> 100 µM (inactive)	> 100 µM (inactive)	> 100 µM (inactive)	> 100 µM (inactive)
O=C(O)c1cc2ccccc2c(/N=N/c2ccc(S(=O)(=O)Nc3ncccn3)cc2)c1O	> 100 µM (inactive)	–	> 100 µM (inactive)	> 100 µM (inactive)	–	–	> 100 µM (inactive)	> 100 µM (inactive)	> 100 µM (inactive)	> 100 µM (inactive)	> 100 µM (inactive)	> 100 µM (inactive)	> 100 µM (inactive)	> 100 µM (inactive)	> 100 µM (inactive)	> 100 µM (inactive)	> 100 µM (inactive)	> 100 µM (inactive)	> 100 µM (inactive)
CN1CCN(C(=S)N(C(=O)c2ccco2)C2CCCCC2)CC1	> 100 µM (inactive)	> 100 µM (inactive)	> 100 µM (inactive)	> 100 µM (inactive)	–	> 100 µM (inactive)	–	–	> 100 µM (inactive)	> 100 µM (inactive)	> 100 µM (inactive)	> 100 µM (inactive)	–	> 100 µM (inactive)	> 100 µM (inactive)	–	> 100 µM (inactive)	–	> 100 µM (inactive)
Cc1cc(Br)cc(C)c1NC(=O)C(=O)C1C(=O)C(CC2C(=O)c3ccccc3C2=O)C(=O)CC1(C)C (stereo unspecified)	> 100 µM (inactive)	> 100 µM (inactive)	> 100 µM (inactive)	–	–	> 100 µM (inactive)	86.5 µM (inactive)	50.8 µM (inactive)	–	44.5 µM (inactive)	16.8 µM (inactive)	> 100 µM (inactive)	60.7 µM (inactive)	> 100 µM (inactive)	18.6 µM (inactive)	> 100 µM (inactive)	> 100 µM (inactive)	> 100 µM (inactive)	> 100 µM (inactive)
[N-]=[N+]=NI1OC(C(F)(F)F)(C(F)(F)F)c2ccccc21	15.1 µM (inactive)	15.2 µM (inactive)	17.9 µM (inactive)	15.6 µM (inactive)	17 µM (inactive)	–	18.6 µM (inactive)	16.9 µM (inactive)	12.1 µM (inactive)	5.83 µM (inactive)	11 µM (inactive)	13.9 µM (inactive)	15.7 µM (inactive)	13.8 µM (inactive)	12.9 µM (inactive)	8.55 µM (inactive)	16 µM (inactive)	16.5 µM (inactive)	17.5 µM (inactive)
CN(C)c1nc(NN)c2c(-c3ccccc3)c(-c3ccccc3)oc2n1	> 100 µM (inactive)	> 100 µM (inactive)	> 100 µM (inactive)	72.3 µM (inactive)	> 100 µM (inactive)	–	> 100 µM (inactive)	> 100 µM (inactive)	> 100 µM (inactive)	68.2 µM (inactive)	> 100 µM (inactive)	> 100 µM (inactive)	–	> 100 µM (inactive)	> 100 µM (inactive)	> 100 µM (inactive)	–	> 100 µM (inactive)	> 100 µM (inactive)
